{
  "source": "the NIST ThermoML archive (doi:10.1016/j.fluid.2011.12.008)",
  "note": "Numbers after ± are expanded uncertainties.",
  "data": [
    {"settings": "298.15 K; 101.33 kPa; Liquid; Vibrating tube method", "units": {"mass density": "kg/m3"}, "values": [
      {"smiles": "CCCCCC[n+]1ccn(C)c1.O=S(=O)([N-]S(=O)(=O)C(F)(F)F)C(F)(F)F", "mass density": "1371.6 ± 0.7"},
      {"smiles": "CCCCCC[N+]1(C)CCCC1.O=S(=O)([N-]S(=O)(=O)C(F)(F)F)C(F)(F)F", "mass density": "1336 ± 1.6"},
      {"smiles": "CCCC[N+]1(C)CCCC1.O=S(=O)([N-]S(=O)(=O)C(F)(F)F)C(F)(F)F", "mass density": "1394.3 ± 0.6"},
      {"smiles": "CCC[N+](C)(C)CC.O=S(=O)([N-]S(=O)(=O)C(F)(F)F)C(F)(F)F", "mass density": "1403.5 ± 0.6"}
    ]}
  ]
}
